Source: patent US20040037806A1, “Aldosterone blocker therapy to prevent or treat inflammation-related disorders” (Pharmacia Corporation, priority 2002, published 2004)
Entries after “also recorded” stand apart in the source; their conditions may differ.

Assays:
Format in all cases: in vivo, rat
[1] = Assay A: angiotensin II infusion model, heart histology (hematoxylin&eosin), vascular inflammation and myocardial injury; settings: Wistar rats, 1% NaCl, angiotensin II 25 ng/min sc, 4 weeks, 10/group; eplerenone 100 mpk; aldosterone replacement in adrenalectomized rats
Excerpt: Assay A: In Vivo Angiotensin II Infusion Model
Male Wistar rats (n=50, 10/group; BW=200 g)
Sacrifice by exanguination after 4 weeks. Blood was be collected in dry tubes for determination of serum electrolytes and in EDTA-containing tubes for measurement of aldosterone and corticosterone levels
Hearts were stained with hematoxylin&eosin and have been analyzed for determination of morphologic abnormalities (i.e. necrosis, vascular injury).

[2] = Assay C: body weight, ventricle weights, tibia length (myocardial hypertrophy); settings: for Ventricular hypertrophy (absolute ventricular weights, ventricular weight to tibia length ratios): aldosterone+salt alone or with eplerenone 100 mg/kg/day, 7, 14, 30 days; for Body weight: aldosterone+salt at days 7, 14 and 30 vs vehicle+salt, eplerenone 100 mg/kg/day effect at day 30
Procedure: The procedure of Assay B was expanded upon in a further study. […] Myocardial tissue from animals in each treatment group was examined after 7, 14, or 30 days of treatment. […] Lesions were preceded by the expression and progressive upregulation of proinflammatory molecules. […] Male Sprague-Dawley rats, weighing 230 to 250 g, (Harlan Sprague-Dawley Industries, Indianapolis, Ind.) were housed in a room 12-hours light/12-hours dark daily cycle at an ambient temperature of 22±1° C. (n=96). Animals were allowed one week to adjust after arrival and had free access to TEKLAD 22/5 rodent diet (Harlan TEKLAD, Madison, Wis.) and tap water until the initiation of the experiment. Prior to surgery the animals were individually weighed and placed in one of the following groups: […] Potassium chloride supplementation was added to the saline solution in order to prevent the potential hypokalemia associated with aldosterone excess. Treatment At the time of the surgery, an Alzet 2002 osmotic minipump (Alza Corp., Palo Alto, Calif.) containing either vehicle (9% ethanol/87% propylene glycol/4% dH2O) or 1.0 mg/mL d-aldosterone (Sigma Chemical, St. Louis, Mo.) was inserted subcutaneously at the nape of the neck. Aldosterone was administered at a dose of 0.75 µg/hour. […] Animals were sacrificed from each group (n=8-13) after 7, 14, or 30 days of treatment. At the cessation of each experimental time point, the animals were anesthetized with pentobarbital (65 mg/kg i.p., Sigma Chemical, St. Louis Mo.) and weighed with a Mettler PM6000 balance (Mettler-Toledo, Inc., Hightstown, N.J.). The abdominal cavity was opened to expose the abdominal aorta. A 16-gauge needle was inserted into the abdominal aorta and the animal was exsanguinated into a 12 cc syringe. The blood sample was transferred immediately into glass serum collection tubes (Terumo Medical Corp., Elkton, Md.) for drug level analysis. The samples were placed on wet ice until sample collection was complete and centrifuged for 15 min at 3000 rev/min at 4° C. Following exsanguination, hearts and kidneys were isolated, removed, rinsed in cold phosphate-buffered saline, and blotted dry. Kidneys were immediately bifurcated through the long axis with a razor blade and placed in 10% neutral buffered formalin (NBF, Richard-Allen Scientific, Kalamazoo, Mich.). For the hearts, the right ventricle (RV) was cut away from the left ventricle (LV), both ventricles were weighed using a Mettler AE163 balance (Mettler-Toledo, Inc., Hightstown, N.J.), and the RV was placed in 10% NBF. […] Final wet trimming was completed after 3-4 days fixation where a second 2 mm coronal slab was removed for hydroxyproline analysis and a third 2mm slab was removed from the equatorial region for histology.

COX-2 = assay: Assay C: COX-2 mRNA, TaqMan; settings: 7, 14, 30 days; aldosterone+salt alone or with eplerenone 100 mg/kg/day
Procedure: The procedure of Assay B was expanded upon in a further study. […] Myocardial tissue from animals in each treatment group was examined after 7, 14, or 30 days of treatment.
Potassium chloride supplementation was added to the saline solution in order to prevent the potential hypokalemia associated with aldosterone excess.
Treatment At the time of the surgery, an Alzet 2002 osmotic minipump (Alza Corp., Palo Alto, Calif.) containing either vehicle (9% ethanol/87% propylene glycol/4% dH2O) or 1.0 mg/mL d-aldosterone (Sigma Chemical, St. Louis, Mo.) was inserted subcutaneously at the nape of the neck. Aldosterone was administered at a dose of 0.75 µg/hour. […]
The fluorogenic 5′-nuclease assay (TaqMan PCR) using Applied Biosystems' 7700 Sequence Detection System (Applied Biosystems, Foster City, Calif.) allowed for real time detection/quantitation of a specific gene by monitoring the increase in fluorescence of a gene-specific, dye-labeled oligonucleotide probe. […] When the probe was annealed to the target gene, fluorescence of 6FAM was prevented by the close proximity of TAMRA. The exonuclease activity of Taq polymerase released the dyes from the oligonucleotide probe by displacing the probe from the target sequence resulting in fluorescence excitation in direct proportion to the amount of target message present. […]

Row | SMILES | Vascular inflammatory lesions in the coronary arteries / heart [1] | Ventricular hypertrophy (absolute ventricular weights, ventricular weight to tibia length ratios) [2] | Body weight [2] | COX-2 mRNA expression in myocardium (COX-2) | Final Body Weight ([2]; 7 days of treatment, uninephrectomized Sprague-Dawley rats, 1% NaCl-0.3% KCl, aldosterone infusion alone or with eplerenone 100 mg/kg/day, individual rats and group Mean) [g]
1 | C[C@]12CCC(=O)C=C1CC[C@@H]1[C@@H]2[C@@H](O)C[C@]2(C=O)[C@@H](C(=O)CO)CC[C@@H]12 [aldosterone] | restored the severe coronary and myocardial inflammation and injury | Significant left and right ventricular hypertrophy | significantly lower | significantly increased | –
2 | COC(=O)[C@@H]1CC2=CC(=O)CC[C@]2(C)[C@@]23O[C@@H]2C[C@@]2(C)[C@@H](CC[C@@]24CCC(=O)O4)[C@H]13 [eplerenone] | prevention by eplerenone (epoxymexrenone) of vascular inflammation; also recorded: one of the ten | did not impact absolute ventricular weights or ventricular weight to tibia length ratios | significantly attenuated | inhibition of early time-course expression of myocardial COX-2; also recorded: significantly reduced | 286
